Results on 1 compound are retold here after patent US20250114342A1, “APIXABAN ORAL LIQUID DOSAGE FORMS” (Shilpa Medicare Limited, priority 2023, published 2025).

Like-named read-outs stand apart in the source and are kept apart here.

A short description of data set [1]: Drug-excipients compatibility study (thermal stability). Type of data set: physicochemical. The protocol: Amounts of apixaban and other components identified here were determined chromatographically, e.g., High Performance Liquid Chromatograph (HPLC). Amounts of apixaban related substances identified here were also determined chromatographically, e.g., High Performance Liquid Chromatograph (HPLC).

For data set [2] the following is noted: cited from earlier work.

With `COc1ccc(-n2nc(C(N)=O)c3c2C(=O)N(c2ccc(N4CCCCC4=O)cc2)CC3)cc1` [apixaban, 1-(4-methoxyphenyl)-7-oxo-6-[4-(2-oxopiperidin-1-yl)phenyl]-4,5,6,7-tetrahydro-1H-pyrazolo[3,4-c]pyridine-3-carboxamide], the “Any individual unspecified impurity” value in data set [1] (15 Days 60° C. Close Vial) was 0.03 % w/w; in data set [1] (30 Days 25° C. Close Vial) it was 0.03 % w/w; in data set [1] (30 Days 25° C. Open Vial), 0.02 % w/w; in data set [1] (30 Days 40° C. Close Vial), 0.03 % w/w; in data set [1] (30 Days 40° C. Open Vial) it was 0.03 % w/w; in data set [1] (Initial) it was 0.02 % w/w. The “Related substances: Acid Impurity” value in data set [1] (15 Days 60° C. Close Vial) amounted to 0.02 % w/w; in data set [1] (30 Days 25° C. Close Vial), 0.01 % w/w; in data set [1] (30 Days 25° C. Open Vial) it was 0.02 % w/w; in data set [1] (30 Days 40° C. Close Vial), 0.02 % w/w; in data set [1] (30 Days 40° C. Open Vial), 0.02 % w/w; in data set [1] (Initial), 0.01 % w/w. In addition, the Total impurities amounted to 0.07 % w/w in data set [1] (15 Days 60° C. Close Vial); 0.07 % w/w in data set [1] (30 Days 25° C. Close Vial); 0.07 % w/w in data set [1] (30 Days 25° C. Open Vial); 0.09 % w/w in data set [1] (30 Days 40° C. Close Vial); 0.09 % w/w in data set [1] (30 Days 40° C. Open Vial); 0.06 % w/w in data set [1] (Initial). Also, the solubility result is reported as “partially soluble” in data set [2] (2 mg of apixaban, 100% propylene glycol, 20° C.); “insoluble” in data set [2] (higher amount of apixaban, 40% propylene glycol+60% glycerol, 20° C.); “gets dissolved” in data set [2] (higher amount of apixaban, 40% propylene glycol+60% glycerol, 40° C.).
